Measurements published in ChEMBL document CHEMBL1275437, “Prevalence of serotype 19A Streptococcus pneumoniae among isolates from U.S. children in 2005-2006 and activity of faropenem” (2008).
Values after ≈ are worked out from the molar mass of the structure shown.

How the values were obtained:
Streptococcus pneumoniae [1] = experiment: Antibacterial activity against Streptococcus pneumoniae serotype 19F assessed as percent susceptible isolates by broth microdilution method in presence of clavulanate; assay type: functional
Streptococcus pneumoniae [2] = experiment: Antibacterial activity against Streptococcus pneumoniae serotype 22 assessed as percent susceptible isolates by broth microdilution method in presence of clavulanate; assay type: functional
Streptococcus pneumoniae [3] = experiment: Antibacterial activity against Streptococcus pneumoniae serotype 6A/C assessed as percent resistant isolates by broth microdilution method in presence of clavulanate; assay type: functional
Streptococcus pneumoniae [4] = experiment: Antibacterial activity against Streptococcus pneumoniae serotype 33 assessed as percent susceptible isolates by broth microdilution method in presence of clavulanate; assay type: functional
Streptococcus pneumoniae [5] = experiment: Antibacterial activity against Streptococcus pneumoniae serotype 19F assessed as percent resistant isolates by broth microdilution method in presence of clavulanate; assay type: functional
Streptococcus pneumoniae [6] = experiment: Antibacterial activity against Streptococcus pneumoniae serotype 23A assessed as percent resistant isolates by broth microdilution method in presence of clavulanate; assay type: functional
Streptococcus pneumoniae [7] = experiment: Antibacterial activity against Streptococcus pneumoniae serotype 35B by broth microdilution method in presence of clavulanate; assay type: functional
Streptococcus pneumoniae [8] = experiment: Antibacterial activity against Streptococcus pneumoniae serotype 3 assessed as percent resistant isolates by broth microdilution method in presence of clavulanate; assay type: functional
Streptococcus pneumoniae [9] = experiment: Antibacterial activity against Streptococcus pneumoniae serotype 6A/C by broth microdilution method in presence of clavulanate; assay type: functional
Streptococcus pneumoniae [10] = experiment: Antibacterial activity against Streptococcus pneumoniae serotype 35B assessed as percent resistant isolates by broth microdilution method in presence of clavulanate; assay type: functional
Streptococcus pneumoniae [11] = experiment: Antibacterial activity against Streptococcus pneumoniae serotype 3 assessed as percent susceptible isolates by broth microdilution method in presence of clavulanate; assay type: functional
Streptococcus pneumoniae [12] = experiment: Antibacterial activity against Streptococcus pneumoniae serotype 23A by broth microdilution method in presence of clavulanate; assay type: functional
Streptococcus pneumoniae [13] = experiment: Antibacterial activity against Streptococcus pneumoniae serotype 15A by broth microdilution method in presence of clavulanate; assay type: functional
Streptococcus pneumoniae [14] = experiment: Antibacterial activity against Streptococcus pneumoniae serotype 15A assessed as percent susceptible isolates by broth microdilution method in presence of clavulanate; assay type: functional
Streptococcus pneumoniae [15] = experiment: Antibacterial activity against Streptococcus pneumoniae serotype 22 by broth microdilution method in presence of clavulanate; assay type: functional
Streptococcus pneumoniae [16] = experiment: Antibacterial activity against Streptococcus pneumoniae serotype 22 assessed as percent resistant isolates by broth microdilution method in presence of clavulanate; assay type: functional
Streptococcus pneumoniae [17] = experiment: Antibacterial activity against Streptococcus pneumoniae serotype 33 by broth microdilution method in presence of clavulanate; assay type: functional
Streptococcus pneumoniae [18] = experiment: Antibacterial activity against Streptococcus pneumoniae serotype 3 by broth microdilution method in presence of clavulanate; assay type: functional
Streptococcus pneumoniae [19] = experiment: Antibacterial activity against Streptococcus pneumoniae serotype 6A/C assessed as percent susceptible isolates by broth microdilution method in presence of clavulanate; assay type: functional
Streptococcus pneumoniae [20] = experiment: Antibacterial activity against Streptococcus pneumoniae serotype 33 assessed as percent resistant isolates by broth microdilution method in presence of clavulanate; assay type: functional
Streptococcus pneumoniae [21] = experiment: Antibacterial activity against Streptococcus pneumoniae serotype 19A by broth microdilution method in presence of clavulanate; assay type: functional
Streptococcus pneumoniae [22] = experiment: Antibacterial activity against Streptococcus pneumoniae serotype 15A assessed as percent resistant isolates by broth microdilution method in presence of clavulanate; assay type: functional
Streptococcus pneumoniae [23] = experiment: Antibacterial activity against Streptococcus pneumoniae serotype 19F by broth microdilution method in presence of clavulanate; assay type: functional
Streptococcus pneumoniae [24] = experiment: Antibacterial activity against Streptococcus pneumoniae serotype 35B assessed as percent susceptible isolates by broth microdilution method in presence of clavulanate; assay type: functional
Streptococcus pneumoniae [25] = experiment: Antibacterial activity against Streptococcus pneumoniae serotype 23A assessed as percent susceptible isolates by broth microdilution method in presence of clavulanate; assay type: functional
Streptococcus pneumoniae [26] = experiment: Antibacterial activity against Streptococcus pneumoniae serotype 19A assessed as percent resistant isolates by broth microdilution method in presence of clavulanate; assay type: functional
Streptococcus pneumoniae [27] = experiment: Antibacterial activity against Streptococcus pneumoniae serotype 19A assessed as percent susceptible isolates by broth microdilution method in presence of clavulanate; assay type: functional
Streptococcus pneumoniae [28] = experiment: Antibacterial activity against Streptococcus pneumoniae serotype 3 by broth microdilution method; assay type: functional
[29] = T>MIC in mouse prophylaxis model infected with Bacillus anthracis; assay type: functional
Streptococcus pneumoniae [30] = experiment: Antibacterial activity against Streptococcus pneumoniae serotype 33 by broth microdilution method; assay type: functional
Streptococcus pneumoniae [31] = experiment: Antibacterial activity against Streptococcus pneumoniae serotype 23A by broth microdilution method; assay type: functional
Streptococcus pneumoniae [32] = experiment: Antibacterial activity against Streptococcus pneumoniae serotype 6A/C by broth microdilution method; assay type: functional
Streptococcus pneumoniae [33] = experiment: Antibacterial activity against Streptococcus pneumoniae serotype 35B by broth microdilution method; assay type: functional
Streptococcus pneumoniae [34] = experiment: Antibacterial activity against Streptococcus pneumoniae serotype 19A by broth microdilution method; assay type: functional
Streptococcus pneumoniae [35] = experiment: Antibacterial activity against multidrug-resistant Streptococcus pneumoniae infected in mouse neutropenic thigh infection model; assay type: functional; conditions: Thigh muscle
Streptococcus pneumoniae [36] = experiment: Antibacterial activity against Streptococcus pneumoniae serotype 15A by broth microdilution method; assay type: functional
Streptococcus pneumoniae [37] = experiment: Antibacterial activity against non-multidrug-resistant Streptococcus pneumoniae; assay type: functional
Streptococcus pneumoniae [38] = experiment: Antibacterial activity against Streptococcus pneumoniae serotype 22 by broth microdilution method; assay type: functional
Streptococcus pneumoniae [39] = experiment: Antibacterial activity against Streptococcus pneumoniae serotype 19F by broth microdilution method; assay type: functional
Streptococcus pneumoniae [40] = experiment: Antibacterial activity against multidrug-resistant Streptococcus pneumoniae; assay type: functional
[41] = T>MIC in mouse neutropenic thigh infection model infected with multidrug-resistant Streptococcus pneumoniae; assay type: functional, Thigh muscle

Q: Which % susceptible isolates (Streptococcus pneumoniae [1]) does the source give for `CC1(C)S[C@@H]2[C@H](NC(=O)[C@H](N)c3ccc(O)cc3)C(=O)N2[C@H]1C(=O)O` [AMOXICILLIN] here?
A: 47%

Q: What about the % susceptible isolates (Streptococcus pneumoniae [2]) of the same compound?
A: 100%

Q: What about the % resistant isolates (Streptococcus pneumoniae [3]) of the same compound?
A: 3%

Q: What about the % susceptible isolates (Streptococcus pneumoniae [4]) of the same compound?
A: 100%

Q: What about the % resistant isolates (Streptococcus pneumoniae [5]) of the same compound?
A: 48%

Q: And the % resistant isolates (Streptococcus pneumoniae [6])?
A: 0%

Q: And the MIC90 (Streptococcus pneumoniae [7])?
A: 2 µg/mL

Q: What about the % resistant isolates (Streptococcus pneumoniae [8]) of the same compound?
A: 0%

Q: And the MIC90 (Streptococcus pneumoniae [9])?
A: 1 µg/mL

Q: And the % resistant isolates (Streptococcus pneumoniae [10])?
A: 0%

Q: What about the % susceptible isolates (Streptococcus pneumoniae [11]) of the same compound?
A: 100%

Q: What about the MIC90 (Streptococcus pneumoniae [12]) of the same compound?
A: 0.25 µg/mL

Q: What about the MIC90 (Streptococcus pneumoniae [13]) of the same compound?
A: 0.25 µg/mL

Q: What about the % susceptible isolates (Streptococcus pneumoniae [14]) of the same compound?
A: 100%

Q: What about the MIC90 (Streptococcus pneumoniae [15]) of the same compound?
A: ≤ 0.12 µg/mL

Q: And the % resistant isolates (Streptococcus pneumoniae [16])?
A: 0%

Q: What about the MIC90 (Streptococcus pneumoniae [17]) of the same compound?
A: ≤ 0.12 µg/mL

Q: And the MIC90 (Streptococcus pneumoniae [18])?
A: ≤ 0.12 µg/mL

Q: And the % susceptible isolates (Streptococcus pneumoniae [19])?
A: 97%

Q: What about the % resistant isolates (Streptococcus pneumoniae [20]) of the same compound?
A: 0%

Q: And the MIC90 (Streptococcus pneumoniae [21])?
A: 8 µg/mL

Q: What about the % resistant isolates (Streptococcus pneumoniae [22]) of the same compound?
A: 0%

Q: And the MIC90 (Streptococcus pneumoniae [23])?
A: 16 µg/mL

Q: What about the % susceptible isolates (Streptococcus pneumoniae [24]) of the same compound?
A: 100%

Q: What about the % susceptible isolates (Streptococcus pneumoniae [25]) of the same compound?
A: 100%

Q: What about the % resistant isolates (Streptococcus pneumoniae [26]) of the same compound?
A: 35%

Q: And the % susceptible isolates (Streptococcus pneumoniae [27])?
A: 62%

Q: Which MIC90 (Streptococcus pneumoniae [28]) does the source give for `C[C@@H](O)[C@H]1C(=O)N2C(C(=O)O)=C([C@H]3CCCO3)S[C@H]12` [FAROPENEM] here?
A: 0.015 µg/mL (≈ 0.0526 µM)

Q: And the “fT>MIC” value [29]?
A: 16.4%

Q: And the MIC90 (Streptococcus pneumoniae [30])?
A: 0.015 µg/mL (≈ 0.0526 µM)

Q: What about the MIC90 (Streptococcus pneumoniae [31]) of the same compound?
A: 0.06 µg/mL (≈ 0.21 µM)

Q: And the MIC90 (Streptococcus pneumoniae [32])?
A: 0.25 µg/mL (≈ 0.876 µM)

Q: And the MIC90 (Streptococcus pneumoniae [33])?
A: 0.5 µg/mL (≈ 1.75 µM)

Q: And the MIC90 (Streptococcus pneumoniae [34])?
A: 1 µg/mL (≈ 3.5 µM)

Q: What about the MIC90 (Streptococcus pneumoniae [35]) of the same compound?
A: > 2 µg/mL

Q: And the MIC90 (Streptococcus pneumoniae [36])?
A: 0.12 µg/mL (≈ 0.421 µM)

Q: And the MIC90 (Streptococcus pneumoniae [37])?
A: 0.25 µg/mL (≈ 0.876 µM)

Q: What about the MIC90 (Streptococcus pneumoniae [38]) of the same compound?
A: 0.015 µg/mL (≈ 0.0526 µM)

Q: What about the MIC90 (Streptococcus pneumoniae [39]) of the same compound?
A: 1 µg/mL (≈ 3.5 µM)

Q: And the MIC90 (Streptococcus pneumoniae [40])?
A: 2 µg/mL (≈ 7.01 µM)

Q: What about the “fT>MIC” value [41] of the same compound?
A: 13.9%
